One series relates to pan HDAC. Further details: method as in doi:10.1039/D0NJ01274B. Particulars: read-out: pan HDAC inhibitory activity IC50; cited from earlier work.
The test system of another series is HepG2 cells. In words: MTT cytotoxicity assay against HepG2 cell line. Particulars: Homo sapiens, mean of three independent replicates ± SE. In kind it is cell-based. The method, then: (§1) Cytotoxic activity was carried out using MTT colorimetric antiproliferative assay to investigate the effect of the prepared molecules on HepG2 as well as HL-7702 cell lines. See Section 4.3.1 in Supplementary Data.
(§2) 4.3.1. Cytotoxic activity evaluation
(§3) To measure the cytotoxic actvity of the amide derivatives 2-6e in hepatocellular carcinoma (HepG2) cell line (ATCC Cat No. HB-8065) as well as normal human liver cell line HL-7702 (ATCC Cat. No. 77402), cell viability assay was assessed using MTT assay method. Cells at density of 1 x 104 were seeded in a 96-well plate at 37 °C for 24 h under 5% CO2. After incubation, the cells were treated with different concentrations of the test schiff bases 2-6e and incubated for 24 h, then 20 µl of MTT solution at 5 mg/mL was applied and incubated for 4 h at 37 °C . Dimethyl sulphoxide (DMSO) in volume of 100 µl was added to each well to dissolve the purple formazan that had formed. The color intensity of the formazan product, which represents the growth condition of the cells, is quantified by using an ELISA plate reader (EXL 800, USA) at 450 nm absorbance. The experimental conditions were carried out with at least three replicates, and the experiments were repeated at least three times. […]
In general terms: Formazan colour is commonly taken as a measure of viable cells.

For another series, the target named is T1, β-tubulin (Homo sapiens, UniProt P07437+P68363).
T1 construct: […]
In words: Tubulin polymerization inhibition assay (Human Beta-tubulin ELISA kit). Conditions: ELISA for β-tubulin, compared with untreated control cells. In kind it is biochemical. As for the experimental part: See Section 4.3.3 in Supplementary Data.
4.3.3. Tubulin inhibitions Assay […]
manufacturer’s instructions using # abcam Human Beta-tubulin simplestep ELISA Kit […]
Cell cycle analysis in HepG2 cells was investigated using fluorescent Annexin V - FITC/ PI detection kit (BioVision EZCellTM Cell Cycle Analysis Kit Catalog #K920) […]
After treatment, cells were washed twice in PBS, fixed in 70% ethanol, rinsed again with PBS. Cells were collected by centrifugation at 2000 rpm for 5 min and stained with DNA […]
The samples were immediately analyzed using Facs Calibur flow cytometer (Becton and Dickinson, Heidelberg, Germany).
Apoptosis in HepG2 cells was investigated using fluorescent Annexin V-FITC/ PI detection kit (BioVision Annexin V-FITC Apoptosis Detection Kit, Catalog #: K101) […]
immediately analyzed using FACS Calibur flow cytometer (Becton and Dickinson, […]
Caspase 3/7 in HepG2 cells was investigated using CellEvent® Caspase 3/7 Green Detection Flow Cytometry Assay Kit. Caspase 3/7 activity in HepG2 cell line was […]
CellEvent® caspase 3/7 green detection flow cytometry assay kit according to manufacturer’s directions. […]
harvested and washed with ice cold PBS, and cell lysates were prepared and […]
(In general: In an ELISA, binding on a coated surface is turned into a signal by an enzyme label.)

Another series concerns HL-7702 cells. Briefly: MTT cytotoxicity assay against normal liver cell line HL-7702. In kind it is cell-based, human. Conditions: Homo sapiens, L02; MTT assay, normal liver cell line HL-7702, mean of three independent replicates ± SE. The method, then:
as §1, §2, §3

In a further series the test system is HDAC1. Particulars: cited from earlier work.

Results on 17 compounds are retold here after paper PMC9227250, “Design, Synthesis and Cytotoxic Activity Evaluation of Newly Synthesized Amides-Based TMP Moiety as Potential Anticancer Agents over HepG2 Cells” (Molecules, 2022).

SMILES strings stand for the structures.

T1 sequence (P07437 whole entry): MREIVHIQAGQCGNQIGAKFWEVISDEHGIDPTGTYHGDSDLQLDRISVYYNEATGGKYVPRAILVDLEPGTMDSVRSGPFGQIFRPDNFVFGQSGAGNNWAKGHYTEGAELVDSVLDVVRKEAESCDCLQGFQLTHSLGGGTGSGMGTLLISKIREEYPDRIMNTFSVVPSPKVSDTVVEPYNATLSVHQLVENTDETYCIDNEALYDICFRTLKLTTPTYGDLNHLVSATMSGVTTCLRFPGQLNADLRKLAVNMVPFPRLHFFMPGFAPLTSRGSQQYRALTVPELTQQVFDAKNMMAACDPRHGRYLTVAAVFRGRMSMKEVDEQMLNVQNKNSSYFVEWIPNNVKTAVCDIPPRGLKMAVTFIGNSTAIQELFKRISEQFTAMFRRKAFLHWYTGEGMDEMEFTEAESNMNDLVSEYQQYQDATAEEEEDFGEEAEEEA
T1 sequence (P68363 whole entry): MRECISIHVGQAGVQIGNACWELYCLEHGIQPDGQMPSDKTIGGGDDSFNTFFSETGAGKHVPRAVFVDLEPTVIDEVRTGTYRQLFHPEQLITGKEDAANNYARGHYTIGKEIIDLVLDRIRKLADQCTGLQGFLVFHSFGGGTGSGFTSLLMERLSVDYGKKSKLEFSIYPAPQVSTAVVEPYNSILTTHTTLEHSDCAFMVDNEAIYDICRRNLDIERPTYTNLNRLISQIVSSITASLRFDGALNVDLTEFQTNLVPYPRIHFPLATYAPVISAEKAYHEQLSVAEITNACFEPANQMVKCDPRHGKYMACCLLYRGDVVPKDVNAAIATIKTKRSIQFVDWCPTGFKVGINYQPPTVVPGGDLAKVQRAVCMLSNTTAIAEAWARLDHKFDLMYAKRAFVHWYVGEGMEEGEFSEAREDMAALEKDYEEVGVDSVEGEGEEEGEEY

For orientation: melting point means the temperature of the solid-liquid transition. For the compound `COc1cc(C(=O)NC(=Cc2ccco2)C(=O)Nc2ccc3ccccc3c2)cc(OC)c1OC` (hydrate or solvate) [Compound 3, N-(1-(furan-2-yl)-3-(naphthalen-2-ylamino)-3-oxoprop-1-en-2-yl)-3,4,5-trimethoxybenzamide], the melting point was 270 to 272 °C.
One may read the IC50 as the point on the concentration scale where inhibition reaches its midpoint. As to `Nc1ccccc1NC(=O)c1cnccn1` [BG45], in the series on pan HDAC, the IC50 was 5.51 µM.
Turning to `COc1ccc(/C=C\c2cc(OC)c(OC)c(OC)c2)cc1O` [CA-4, combretastatin A-4, reference compound], the IC50 in the series with HepG2 cells turned out to be 0.54 ± 0.04 µM; with HL-7702 cells it was 8.86 ± 0.67 µM. Besides, at β-tubulin, the “tubulin polymerization percentage inhibition” value is 88.72%.
In turn, `COc1cc(C(=O)NC(=Cc2ccco2)C(=O)Nc2cccc(Cl)c2)cc(OC)c1OC` [Compound 2a, N-(3-(3-chlorophenylamino)-1-(furan-2-yl)-3-oxoprop-1-en-2-yl)-3,4,5-trimethoxybenzamide] showed a melting point of 248 to 250 °C. Besides, half-maximal inhibition in the series on HepG2 cells (IC50) required 68.9 ± 3.32 µM.
Turning to `COc1cc(C(=O)NC(=Cc2ccco2)C(=O)Nc2ccc(Cl)cc2)cc(OC)c1OC` [Compound 2b, N-(3-(4-chlorophenylamino)-1-(furan-2-yl)-3-oxoprop-1-en-2-yl)-3,4,5-trimethoxybenzamide], the melting point lay within 241 to 243 °C. The IC50 in the series on HepG2 cells amounted to 23.3 ± 1.03 µM.
Compound `COc1cc(C(=O)NC(=Cc2ccco2)C(=O)Nc2ccc(C)cc2)cc(OC)c1OC` [Compound 2c, N-(1-(furan-2-yl)-3-oxo-3-(p-tolylamino)prop-1-en-2-yl)-3,4,5-trimethoxybenzamide] showed a melting point of 261 to 263 °C. The compound further displayed an IC50 in the series with HepG2 cells of 22 ± 0.96 µM.
For `COc1cc(C(=O)NC(=Cc2ccco2)C(=O)Nc2ccc3ccccc3c2)cc(OC)c1OC` [Compound 3, N-(1-(furan-2-yl)-3-(naphthalen-2-ylamino)-3-oxoprop-1-en-2-yl)-3,4,5-trimethoxybenzamide], inhibition with HepG2 cells was half-maximal at 16.2 ± 0.79 µM (IC50).
Compound `COc1cc(C(=O)NC(=Cc2ccco2)C(=O)NNC(=O)c2cccc(O)c2)cc(OC)c1OC` [Compound 4a, N-(1-(furan-2-yl)-3-(2-(3-hydroxybenzoyl)hydrazinyl)-3-oxoprop-1-en-2-yl)-3,4,5-trimethoxybenzamide] gave a melting point of 235 to 237 °C. In addition, it took 13.4 ± 0.56 µM to reach half-maximal inhibition with HepG2 cells (IC50).
In the case of `COc1cc(C(=O)NC(=Cc2ccco2)C(=O)NNC(=O)c2ccncc2)cc(OC)c1OC` [Compound 4b, N-(1-(furan-2-yl)-3-(2-isonicotinoylhydrazinyl)-3-oxoprop-1-en-2-yl)-3,4,5-trimethoxybenzamide], the melting point lay within 228 to 230 °C. Moreover, in the series with HepG2 cells, inhibition was half-maximal at 8.36 ± 0.51 µM (IC50).
For `COc1cc(C(=O)NC(=Cc2ccco2)C(=O)NNC(=O)c2ccc(NC(=O)c3cccnc3)cc2)cc(OC)c1OC` [Compound 5, N-(4-(2-(3-(furan-2-yl)-2-(3,4,5 trimethoxybenzamido)acryloyl)hydrazinecarbonyl)phenyl)nicotinamide], in that order: 217 to 219 °C and 3.25 ± 0.25 µM.
As to `COc1cc(C(=O)NC(=Cc2ccc(C#N)cc2)C(=O)NNC(=O)/C(=C/c2ccco2)NC(=O)c2cc(OC)c(OC)c(OC)c2)cc(OC)c1OC` [Compound 6b, N-((1Z)-3-(2-(3-(4-cyanophenyl)-2-(3,4,5-trimethoxybenzamido)acryloyl)hydrazinyl)-1-(furan-2-yl)-3-oxoprop-1-en-2-yl)-3,4,5-trimethoxybenzamide], the melting point was 223 to 225 °C. Also, in the series with HepG2 cells, the IC50 came out at 0.92 ± 0.1 µM. This compound returned an IC50 in the series on HL-7702 cells of 11.1 ± 0.18 µM.
As to `COc1cc(C(=O)NC(=Cc2ccc(N(C)C)cc2)C(=O)NNC(=O)/C(=C/c2ccco2)NC(=O)c2cc(OC)c(OC)c(OC)c2)cc(OC)c1OC` [Compound 6c, N-((1Z)-3-(2-(3-(4-(dimethylamino)phenyl)-2-(3,4,5-trimethoxybenzamido)acryloyl)hydrazinyl)-1-(furan-2-yl)-3-oxoprop-1-en-2-yl)-3,4,5-trimethoxybenzamide], the melting point is 215 to 217 °C. Besides, 1.12 ± 0.12 µM corresponded to half-maximal inhibition in the series on HepG2 cells (IC50). For the same compound, in the series with HL-7702 cells, the midpoint of inhibition, the IC50, lay at 9.88 ± 0.14 µM.
`COc1ccc(C=C(NC(=O)c2cc(OC)c(OC)c(OC)c2)C(=O)NNC(=O)/C(=C/c2ccco2)NC(=O)c2cc(OC)c(OC)c(OC)c2)cc1` [Compound 6d, N-(3-(2-((Z)-3-(furan-2-yl)-2-(3,4,5-trimethoxybenzamido)acryloyl)hydrazinyl)-1-(4-methoxyphenyl)-3-oxoprop-1-en-2-yl)-3,4,5-trimethoxybenzamide] had a melting point of 206 to 208 °C. In the series on HepG2 cells, this compound displayed an IC50 of 3.81 ± 0.18 µM.
In turn, `COc1cc(C=C(NC(=O)c2cc(OC)c(OC)c(OC)c2)C(=O)NNC(=O)/C(=C/c2ccco2)NC(=O)c2cc(OC)c(OC)c(OC)c2)cc(OC)c1OC` [Compound 6e, N-(3-(2-((Z)-3-(furan-2-yl)-2-(3,4,5-trimethoxybenzamido)acryloyl)hydrazinyl)-3-oxo-1-(3,4,5-trimethoxyphenyl)prop-1-en-2-yl)-3,4,5-trimethoxybenzamide] displayed a melting point of 212 to 214 °C. The same compound came in with an IC50 in the series on HepG2 cells of 3.98 ± 0.09 µM.
Take `Nc1ccccc1NC(=O)c1ccc(C(C(=O)Nc2ccccc2)C(=O)Nc2ccccc2)cc1` [III]: in the series with HDAC1, the “fold potency for HDAC1 compared with HDAC2” value is recorded as 10 fold and the “fold potency for HDAC1 compared with HDAC3” value is given as 20 fold.
With `Cc1ccc(/C=N/NC(=O)c2ccc(NC(=O)c3cccnc3)cc2)cc1` [IV], the IC50 with pan HDAC was 4.65 µM.
With `O=C(CCCCCCC(=O)Nc1ccccc1)NO` [SAHA, suberoylanilide hydroxamic acid, reference compound], in the series on HepG2 cells, the concentration for half-maximal inhibition (IC50) amounted to 2.91 ± 0.15 µM.
